Cytotoxicity data for 100 compounds are collected here from ChEMBL document CHEMBL3507680, “University of Dundee, Gates Library screen for HepG2 cell viability”.

Structures are written as SMILES.

The data set can be described thus: Human HepG2 cell viability assay in 384 well format. On the set-up: dose 125 nL, time 70.5 hour; concentration not given beside the values. As to conditions: HepG2 cells, read-out: Inhibition. Type of data set: toxicity, cell-based.
For `Cc1nn(C)c2c(N3CCN(C)CC3)nc(C3CC3)nc12`, the cytotoxicity at 70.5 h is -11.8%. The figure for `O=C(c1cscn1)N1CC[C@@H]2[C@@H]1CCN2c1ccccn1` is -2.32%; for `O=C(CNc1cccc(S(=O)(=O)C(F)F)c1)NCc1ccco1` it is 11.3%. The result for `CCCc1nc(CN2CCc3c(ncn3C3CC3)C2)cs1` reads -5.23%; that for `Cc1ccc(-c2cnnc(N3CCCC3c3nccs3)n2)o1` (stereo not given), -7.57%; that for `CC(C)C(NC(=O)c1ccccc1F)C(=O)Nc1cnn(C)c1` (stereo not given), -13.2%. The result for `Cn1cc(N2CC3(CCN(CC4CC4)CC3)OCC2=O)cn1` reads -12.5%. As to `Cc1nc(-c2ccco2)ccc1C(=O)NCCC(=O)N1CCCCC1`, the cytotoxicity at 70.5 h was -103%.

On to `CC1(C)CN=C(N2CCN(CCCN3CCOCC3)CC2)S1`, for which the cytotoxicity at 70.5 h was -8.84%. The figure for `c1csc(CN2CCC3(CCOCC3COCC3CC3)CC2)n1` (stereo not given) is -3.9%.

For `CN(C)c1cc2c(nn1)CCN(C(=O)c1cc3c(s1)CCOC3)C2`, the cytotoxicity at 70.5 h was -15.2%. The result for `CCOc1ccc2c(c1)CN(Cc1nc3c(cnn3C)c(=O)[nH]1)CC2` reads -4.82%; that for `CCS(=O)(=O)N1CCC(Oc2ccc(C#N)cc2)CC1`, 24.1%.

Regarding `COCCc1noc(CN2CCCC2c2c(C)nn(C)c2Cl)n1` (stereo not given), the cytotoxicity at 70.5 h was -0.0583%.

In the case of `Nc1cc(CCC2CN(Cc3cccc(C(=O)O)c3)CCO2)ccn1` (stereo not given), the cytotoxicity at 70.5 h is -7.61%. With `CCN(C)C(=O)c1cccc(C(=O)N(C)Cc2cccc(O)c2)c1`, the cytotoxicity at 70.5 h was found to be 25.8%.

On to `CC(C)Oc1cccc(Cc2nc3c([nH]2)CCCNC3=O)c1`, for which the cytotoxicity at 70.5 h is -4.78%.

On to `Cc1nc(CN2CCc3nc(NC(C)C)nc(C)c3C2)cs1`, for which the cytotoxicity at 70.5 h is -6.71%. The figure for `Cc1nc(C(=O)N(C)CC2CCCO2)nn1-c1ccccc1C(C)C` (stereo not given) is -5.46%. The figure for `CCOC(=O)c1cn(CC(O)c2ccccc2OC)nn1` (stereo not given) is 7.58%.

Turning to `CC(C)(C)c1ncc(C(=O)NC(C(N)=O)c2ccccc2)s1` (stereo not given), the cytotoxicity at 70.5 h was 15.8%.

On to `Cc1nc(CN2C(=O)CC[C@@H]3[C@H]2CCN3C(=O)C2CCOCC2)cs1`, for which the cytotoxicity at 70.5 h is -7.34%.

In the case of `COc1ccc(CN)c(OC(F)F)c1`, the cytotoxicity at 70.5 h was -10.1%.

Regarding `CCCc1nnc(NC(C)c2ccc(F)cc2)o1` (stereo not given), the cytotoxicity at 70.5 h was -8.69%.

On to `Cn1ccc2ccc(C(=O)NC3CCOC(C)(C)C3)cc21` (stereo not given), for which the cytotoxicity at 70.5 h worked out at 8.55%.

With `Cc1ccc(CN(CCCN2CCOCC2)Cc2cnn(C)c2)o1`, the cytotoxicity at 70.5 h was 0.657%. The result for `Cc1cc(N2CCOC(CN)C2)nc(-c2ccccc2)n1` (stereo not given) reads -10.8%; that for `O=C(CNc1cc(-n2cnnn2)ccc1F)Nc1ccccc1Cl`, -114%.

With `Cc1ccc(CN2CCC3(CC2)CCN(C(=O)c2cccnc2)C3)o1`, the cytotoxicity at 70.5 h was -5.87%. The result for `CCC(C)(N)c1nc(C(C)C)cc(=O)[nH]1` (stereo not given) reads -4.71%; that for `CC(C)(C)OC(=O)Cn1nc(C2CC2)cc(C(F)(F)F)c1=O`, -2.4%; that for `CCN1CCN(C[C@@H]2CN(c3ncccc3C(F)(F)F)C[C@@H]2CO)CC1`, -5.49%. The result for `O=C(NCCCO)Nc1cccc(I)c1` reads -5.84%; that for `COc1ccccc1CCc1nc(CC2CCN(C)CC2)no1`, -2.87%. The figure for `CO[C@H]1CN(C(=O)c2cn3cc(C)ccc3n2)CC[C@@]12CCCO2` is -17.2%. In the case of `CN(C)CC1CN(Cc2nc(-c3ccccn3)no2)CCO1` (stereo not given), the cytotoxicity at 70.5 h turned out to be 16.4%.

Consider `O=C(NCC1CC1)[C@@H]1C[C@@H]2CCN(Cc3ccoc3)C[C@@H]2O1`, for which the cytotoxicity at 70.5 h came to 2.93%. Consider `O=C(C1COc2ccccc2O1)N1Cc2cnn(CCO)c2C1` (stereo not given), for which the cytotoxicity at 70.5 h was -3.6%. With `CN(CCOc1cccc(F)c1)CC(=O)Nc1ccncc1`, the cytotoxicity at 70.5 h is -10.9%.

As for `Oc1ccc(N2CCN(Cc3ccc(F)cc3Br)CC2)cc1`, the cytotoxicity at 70.5 h was -7.04%.

`CSCC1CCN(c2nc(N)ncc2C)CC1`: the cytotoxicity at 70.5 h is -9.1%. With `COc1cccc2c1OCC(Cc1cc(C(N)=O)ccn1)C2` (stereo not given), the cytotoxicity at 70.5 h was 26%. The figure for `CCc1ncc(CN(C)C2CCN(C(C)C)CC2)cn1` is 13.4%; for `CCN1CCC(NC(=O)NC2CCOc3ccc(Br)cc32)CC1` (stereo not given) it is -3.03%; for `CC(O)CN1CCC(CNCc2ccccc2Cl)CC1` (stereo not given) it is -7.56%. `CN(C)c1ncnc2c1CCN(c1cc(C(F)(F)F)ncn1)CC2`: the cytotoxicity at 70.5 h was -1.26%. The figure for `CC(C)c1noc(CCC(=O)NC(C)c2nnc3n2CCC3)n1` (stereo not given) is 0.884%; for `Cn1ccc2c(cnc3nc(-c4ccncc4)nn32)c1=O` it is -7.69%; for `O=c1ccc(-c2cccs2)nn1CN1CCN(c2ccccn2)CC1` it is -23.6%. The figure for `Cc1cnn(CCNCc2nccn2CC(F)(F)F)c1` is 1.15%; for `CCn1ccc(NC(=O)CCc2c(C)nn(C)c2C)n1` it is 18.2%; for `CN1CC2(CCCN(Cc3cccc(CCN)c3)C2)OC1=O` (stereo not given) it is 2.55%.

Take `O=C(Cc1ccc(F)cc1)N1C[C@H]2CCN[C@H]2C1`: the cytotoxicity at 70.5 h is -5%. Regarding `COCCCN1CC2(CCN(Cc3cc(C(C)C)no3)CC2)CC1=O`, the cytotoxicity at 70.5 h was 0.169%. The result for `NCc1cnn(-c2ccccc2C(=O)NCCCn2ccnc2)c1` reads -6.34%; that for `Cc1cc(C)n(CC2CCCN2C(=O)c2ccc3nncn3c2)n1` (stereo not given), -4.03%; that for `Cc1nc(N2CCCCC2)ncc1-c1cc(O)nc(N2CCCCC2)n1`, -0.353%. The figure for `CNCC[C@H]1CC(C)(C)Oc2ccc(OC)cc21` is -0.183%; for `Cc1cnn(CC2CCCN2Cc2noc(C3CC3)n2)c1` (stereo not given) it is 0.359%.

Regarding `O=C(Cn1c(-c2ccco2)cc2cccnc21)N1CCCC1`, the cytotoxicity at 70.5 h was -8.97%. Regarding `COc1ccc(Oc2ncccc2NC(=O)N2CCOC(C)C2)cc1` (stereo not given), the cytotoxicity at 70.5 h is -5.19%. The figure for `Cc1cc(C)c(C(=O)N[C@H](C(N)=O)c2ccccc2)c(=O)[nH]1` is 12.8%; for `Cc1ccn(CCC(=O)NCc2ccc(C)o2)n1` it is -1.65%; for `COc1ncc(NCc2ccc(Cl)c(Cl)c2)cc1C(N)=O` it is -5.01%. The result for `O=C1CCCN1Cc1nnc2n1CCN(Cc1ccco1)CC2` reads -1.59%; that for `CCn1nc(C)c(CNC(=O)c2cn(CC3CCCO3)nn2)c1C` (stereo not given), -1.67%. The figure for `c1cc(-c2ccc3nc(C4CCN(CC5CC5)CC4)nn3c2)cs1` is -8.2%; for `Cc1cc(N2CCCC(c3nncn3C3CC3)C2)ncn1` (stereo not given) it is -2.44%. With `CC(=O)Nc1nc(C(=O)N2CCCC(n3nc(C)cc3C)C2)cs1` (stereo not given), the cytotoxicity at 70.5 h came out at 31.5%. The figure for `CC(C)CC(=O)Nc1c(-c2ccc(F)cc2)ncn1C` is 9.48%. The figure for `CN(Cc1ccco1)[C@@H]1CN(Cc2cnn(C)c2)[C@@H]2CCCO[C@H]12` is -12%. The figure for `CNC(=O)[C@@H]1C[C@H](N)CN1Cc1cc2cc(OC)ccc2nc1O` is -8.56%. In the case of `COCCN1CCc2ncc(CNc3cc(N(C)C)ncn3)n2CC1`, the cytotoxicity at 70.5 h was -8.47%. The result for `O=c1cc(N2CCc3ccccc3C2)cnn1CCC1CCOC1` (stereo not given) reads 1.4%. As to `NC(=O)CN1CCC(NC(=O)N2CCCC2c2ccsc2)CC1` (stereo not given), the cytotoxicity at 70.5 h was -6.14%. The result for `COc1ccc(C2CC(=O)Oc3cc(C)[nH]c(=O)c32)cc1` (stereo not given) reads -2.66%.

In the case of `Clc1ccc(-c2nc(CN3CCCC3Cn3cncn3)co2)cc1` (stereo not given), the cytotoxicity at 70.5 h was -1.1%. In the case of `Cn1cc(-c2nnn3c2COC(CNCc2nccs2)C3)cn1` (stereo not given), the cytotoxicity at 70.5 h is -25.2%. The figure for `CC(NC(=O)Nc1ccc(S(C)(=O)=O)cc1)c1ccc2c(c1)CC(=O)N2` (stereo not given) is -7.73%; for `CC(=O)N1CCN(C(=O)c2sc(-c3ccccc3F)nc2C)CC1` it is 16.5%; for `CCCc1nc(C)c(C(=O)NCCN2CCOCC2)s1` it is 21.3%. The figure for `Cc1cc(F)cc(CN2CCCn3nc(CNS(C)(=O)=O)cc3C2)c1` is 0.898%; for `Cc1cc(C(F)(F)F)nc(N2CCN3CCCC3C2)n1` (stereo not given) it is -10.5%.

Turning to `COCCN(CCOC)C(=O)c1c[nH]nc1-c1cccc(F)c1`, the cytotoxicity at 70.5 h was determined as 0.751%.

`COc1ccccc1OCC(=O)NS(=O)(=O)c1cccnc1`: the cytotoxicity at 70.5 h is -8.19%.

Consider `CN(C)C(=O)[C@@H]1C[C@H]2OCC[C@H]2N(CCOc2ccc(Cl)cc2)C1`, for which the cytotoxicity at 70.5 h was -4.26%. The figure for `O=C(NCCN1C(=O)CCC1=O)c1nc2ccccc2c(=O)[nH]1` is -12.2%. For `Fc1cccc(Cl)c1CNCCCOc1ccccn1`, the cytotoxicity at 70.5 h is -3.63%. In the case of `O=C(c1cccc2c1OCCO2)N1CCCC1Cn1cccn1` (stereo not given), the cytotoxicity at 70.5 h was -8.07%. `Cc1cnn(CC2CN(Cc3nc(-c4ccsc4)no3)CCO2)c1` (stereo not given): the cytotoxicity at 70.5 h is -14.2%.

As for `O=C(c1c(O)cnc2ccccc12)N1CCN(CC(F)F)CC1`, the cytotoxicity at 70.5 h was -3.97%.

Regarding `COCCC(=O)N1CCC2(CN(Cc3ccc(OC)c(F)c3)C2)C1`, the cytotoxicity at 70.5 h was -9.17%. The result for `CCc1csc(C2CCCN(C(=O)c3cnc[nH]3)C2)n1` (stereo not given) reads -7.63%. The result for `CC(NC(=O)N1CCN(c2cccs2)CC1)c1ccc(C#N)cc1` (stereo not given) reads -2.79%; that for `CN(C)C(=O)c1cn2cc(-c3cccc(Cl)c3)n(CC3CC3)c(=O)c2n1`, -5.52%. On to `Cc1ccc(C(C)NC(=O)CCc2cnn(C)c2)cc1F` (stereo not given), for which the cytotoxicity at 70.5 h is -8.21%. The figure for `CC(C)c1nnc2n1CCN(C(=O)c1cn(-c3ccccc3)nn1)C2` is -6.83%; for `O=C(NCCNc1cncc(Br)c1)c1ccc(O)cc1` it is -8.4%. The figure for `CCc1ccc(CN2Cc3nccn3CC(CN3CCOCC3)C2)o1` (stereo not given) is -5.92%; for `Cn1cnc(S(=O)(=O)N2CCCc3cc(F)cc(F)c32)c1Cl` it is 10.5%.
